Consider four molecules from US6849663B2, “2-Aminotetralines, a process for their preparation, and pharmaceutical compositions, for the prevention and therapeutic treatment of inflammatory and/or autoimmune pathologies” (Sigma-Tau Industrie Farmaceutiche Riunite S.p.A., priority 1997, dated 2005).

Each structure is given as a SMILES string. Values joined by “and” are separate entries in the source; they are usually repeats but may differ in a detail not shown here. Equal values may be shown once. Where a name gives a salt, the structure may show the parent alone. Read-outs that look alike come from different tables or passages of the source.

In assay [1] the test system is S. typhosa LPS. Also noted: species or system mice. The note with it: mouse, in vivo; for Survival increase (%): iv.
The subject of assay [2] is E. coli LPS. Also noted: species or system mice. The note with it: mouse, in vivo.
Assay [3] deals with TNF. Nature of the assay: Serum TNF after Salmonella typhosa LPS in mice. It counts as in vivo. The note with it: 6 mg/kg i.v., −30/+5 min schedule, LPS control 154.2. The method, then:
Animals were treated intraperitoneally (i.p.) with S. typhosa LPS. Prior to use, the endotoxin was first dissolved in sterile saline and then injected in a volume of 200 μL, at the dose of 27.0 mg/kg, corresponding to about the LD80.
The compounds tested were administered intravenously (i.v.) in a volume of 200 μL of sterile saline at the dose approximately corresponding to 1/10 LD50, 30 min before and again 5 min after the endotoxic challenge (LPS).
In both experimental models, blood samples were taken 90 min after the challenge (peak serum TNF level).
Ether-anaesthetised mice were bled by retro-orbital sinus puncture.
Blood samples were incubated at room temperature for 2 h and the serum thus obtained was centrifuged for 20 min at 3000 rpm and stored at −80° C. pending TNF assay.
TNF biological activity was determined in RPMI medium containing 1% FCS.
50 μL/well of serial dilutions of samples containing TNF were added directly to the Primaria microtiter plates.
The experimental conditions utilised were the same as those previously described.
Data were analysed statistically using the one-tailed Student's t test.

Assay [4] deals with SEB (Staphylococcus aureus) enterotoxin. Also noted: species or system mice. The note with it: mouse, in vivo.
The test system of assay [5] is TNF. Nature of the assay: TNF production induced by LPS in rat blood culture. It counts as cell-based.
The test system of assay [6] is TNF. Also noted: species or system mice. The note with it: mouse, in vivo.
Assay [7] relates to TNF. Also noted: species or system mice. The note with it: mouse, in vivo. This is another data set of the same source.
In assay [8] the test system is IL-1β. Set-up: species or system mice. The following applies: mouse, in vivo.
Assay [9] relates to IL-6. Also noted: species or system mice. The following applies: mouse, in vivo.
The subject of assay [10] is IFN-γ. Set-up: species or system mice. The following applies: mouse, in vivo.

With `COc1cc2c(cc1F)CC[C@@H](N)C2` (racemic) [ST 626, (R,S)-2-amino-6-fluoro-7-methoxytetraline hydrochloride, reference compound], the Dead/Total was 6/20 in [1] and 21/28 in [2]. The figures for the “Survival increase (%)” value in assay [1] and in assay [2] (iv) were “+40%” and “+11%”, respectively. Also, the “TNF (U/mL) Mean” value in [3] stood at 35.0 U/mL.
As for `CC(=O)c1cc2c(cc1C)CC[C@@H](N)C2.Cl` (racemic) [ST 1274, (R,S)-7-acetyl-2-amino-6-methyltetraline hydrochloride], the Dead/Total in [1] is 10/20; in assay [2] it was 5/10; in assay [4], 0/10. Moreover, in assay [1], the “effect on lethality (in words)” value is “significantly reduce the lethality”. In addition, the “Survival increase (%)” value in assay [1] is given as “+40%”; in [4] (iv) it was “+90%”.
For `Cc1cc2c(cc1F)CC[C@@H](N)C2.Cl` (racemic) [ST 1275, (R,S)-2-amino-6-fluoro-7-methyltetraline hydrochloride], the Dead/Total in [1] is 6/10; in assay [2] it was 5/10; in assay [4] it was 1/10. For the same molecule, in assay [1], the “effect on lethality (in words)” value is recorded as “significantly reduce the lethality”. Moreover, the “Survival increase (%)” value is “+40%” in assay [1] and “+80%” in assay [4] (iv).
As to `Cl.N[C@@H]1CCc2cc(F)c(O)cc2C1` [ST 1238, R(+)-2-amino-6-fluoro-7-hydroxytetraline hydrochloride], in [2], the “Survival increase (%)” value is recorded as “+44%” and the “effect on lethality (in words)” value is reported as “significantly reduces the lethality”. Moreover, the “Survival increase (%)” value in assay [2] (iv) is listed as “+60%”. For the same molecule, in assay [2] (hydrochloride), the Dead/Total is 5/20 and 7/19. In addition, in assay [4], the “Survival increase (%)” value was “+70%” and the “protective effect (in words)” value was “extremely significant protective effect”. Moreover, the “Survival increase (%)” value in assay [4] (iv) was “+70%”. Besides, the Dead/Total in assay [4] (hydrochloride) is 1/20 and 4/20. Besides, in assay [5], the “TNF (mean % values)” value is given as 61%. Also, the “reduction of TNF production” value in [5] (rat blood cultures stimulated with LPS, compound 50 μM) was found to be 39%. Moreover, the “effect on TNF levels (in words)” value in [6] is “significantly reduces TNF levels”. Also, in [7], the “TNF (U/mL) Mean” value is 6.2 U/mL, the “TNF (U/mL) mean” value is recorded as 27.0 U/mL and the “effect on TNF production (in words)” value is “significantly reduces TNF production”. In addition, the “IL-1β (pg/mL) Mean” value in assay [8] is 0.9 pg/mL. Besides, in [9], the “IL-6 (pg/mL) Mean” value stood at 599 pg/mL and the “effect on IL-6 production (in words)” value is “significantly reduces the production”. Moreover, in assay [10], the “IFN-γ (pg/mL) Mean” value came to 25 pg/mL and the “effect on IFN-γ production (in words)” value is “significantly reduces the production”.
